Experimental data: PubChem BioAssay AID256 (DTP/NCI, 2004)
Inconclusive results and toxic doses are left out. The calls were made as follows: active = survival T/C of 150% or more; inactive = T/C below 125% in these data.

System: CD2F1 mice, L1210 leukemia ip, survival T/C
Experiment: NCI In Vivo Anticancer Drug Screen. Data for tumor model L1210 Leukemia (intraperitoneal) in CD2F1 (CDF1) mice
Details: higher = longer survival
Outline: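 Ratio T/C, where T is the treated-group value and C the vehicle-dosed control value, from mice implanted with a transplantable tumor.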

[1] = endpoint: mean survival time, dose: 100.0 mg/kg/injection, schedule: Q04DX003 (ip), vehicle: saline with Tween-80
[2] = endpoint: mean survival time, dose: 200.0 mg/kg/injection, schedule: Q04DX003 (ip), vehicle: saline with Tween-80
[3] = endpoint: mean survival time, dose: 400.0 mg/kg/injection, schedule: Q04DX003 (ip), vehicle: saline with Tween-80
[4] = endpoint: mean survival time, dose: 100.0 mg/kg/injection, schedule: Q04DX003 (ip), vehicle: saline
[5] = endpoint: mean survival time, dose: 200.0 mg/kg/injection, schedule: Q04DX003 (ip), vehicle: saline
[6] = endpoint: mean survival time, dose: 400.0 mg/kg/injection, schedule: Q04DX003 (ip), vehicle: saline
[7] = endpoint: mean survival time, dose: 100.0 mg/kg/injection, schedule: Q01DX009 (ip), vehicle: saline with Tween-80
[8] = endpoint: mean survival time, dose: 200.0 mg/kg/injection, schedule: Q01DX009 (ip), vehicle: saline with Tween-80
[9] = endpoint: mean survival time, dose: 400.0 mg/kg/injection, schedule: Q01DX009 (ip), vehicle: saline with Tween-80
[10] = endpoint: mean survival time, dose: 100.0 mg/kg/injection, schedule: Q01DX001 (ip), vehicle: saline with Tween-80
[11] = endpoint: mean survival time, dose: 200.0 mg/kg/injection, schedule: Q01DX001 (ip), vehicle: saline with Tween-80
[12] = endpoint: mean survival time, dose: 400.0 mg/kg/injection, schedule: Q01DX001 (ip), vehicle: saline with Tween-80

Measured: T/C

COc1ccc2c3c(ccc2c1)C1=NCCC1(C)CC3 (centres undefined)
inactive: endpoint: mean survival time, dose: 100.0 mg/kg/injection, schedule: Q01DX001 (sc), vehicle: Klucel (hydroxypropylcellulose) (HPC) 101 % of control | endpoint: mean survival time, dose: 100.0 mg/kg/injection, schedule: Q04DX003 (sc), vehicle: steriod suspending solution 105 % of control | endpoint: mean survival time, dose: 200.0 mg/kg/injection, schedule: Q01DX001 (sc), vehicle: Klucel (hydroxypropylcellulose) (HPC) 101 % of control | endpoint: mean survival time, dose: 200.0 mg/kg/injection, schedule: Q04DX003 (sc), vehicle: steriod suspending solution 102 % of control | endpoint: mean survival time, dose: 400.0 mg/kg/injection, schedule: Q01DX001 (sc), vehicle: Klucel (hydroxypropylcellulose) (HPC) 93 % of control | endpoint: mean survival time, dose: 400.0 mg/kg/injection, schedule: Q04DX003 (sc), vehicle: steriod suspending solution 108 % of control

CC1(C)SC(C(NC(=O)Cc2ccccc2)C(=O)O)NC1C(=O)O (centres undefined)
inactive: [1] 101 % of control | [2] 103 % of control | [3] 95 % of control

O=S(=O)(O)C(S(=O)(=O)O)S(=O)(=O)O
inactive: [1] 96 % of control | [2] 97 % of control | [3] 93 % of control

CCOC(=O)c1nc(N)c2c(CC#N)nn(-c3ccccc3)c2n1
inactive: endpoint: mean survival time, dose: 12.5 mg/kg/injection, schedule: Q01DX005 (ip), vehicle: other 90 % of control | endpoint: mean survival time, dose: 25.0 mg/kg/injection, schedule: Q01DX005 (ip), vehicle: other 93 % of control | endpoint: mean survival time, dose: 50.0 mg/kg/injection, schedule: Q01DX005 (ip), vehicle: other 93 % of control | endpoint: mean survival time, dose: 100.0 mg/kg/injection, schedule: Q01DX005 (ip), vehicle: other 87 % of control | endpoint: mean survival time, dose: 200.0 mg/kg/injection, schedule: Q01DX005 (ip), vehicle: other 93 % of control

NC(=Nc1ccccc1)SCCS(=O)(=O)O
inactive: [1] 102 % of control | [2] 100 % of control | [3] 104 % of control

CCCCCCCC(=O)Nc1ccccc1F
inactive: [4] 103 % of control | [5] 103 % of control | [6] 95 % of control

CCOC(=O)Nc1cc(Cl)c2nnn(C(=O)OCC)c2n1
inactive: endpoint: mean survival time, dose: 12.5 mg/kg/injection, schedule: Q01DX005 (ip), vehicle: water 105 % of control | endpoint: mean survival time, dose: 25.0 mg/kg/injection, schedule: Q01DX005 (ip), vehicle: water 98 % of control | endpoint: mean survival time, dose: 50.0 mg/kg/injection, schedule: Q01DX005 (ip), vehicle: water 96 % of control | endpoint: mean survival time, dose: 100.0 mg/kg/injection, schedule: Q01DX005 (ip), vehicle: water 105 % of control

O=C(CCl)NCc1cn(C2CC(O)C(CO)O2)c(=O)[nH]c1=O (centres undefined)
inactive: endpoint: mean survival time, dose: 5.6 mg/kg/injection, schedule: Q01DX005 (ip), vehicle: water 111 % of control | endpoint: mean survival time, dose: 11.25 mg/kg/injection, schedule: Q01DX005 (ip), vehicle: water 100 % of control | endpoint: mean survival time, dose: 22.5 mg/kg/injection, schedule: Q01DX005 (ip), vehicle: water 103 % of control | endpoint: mean survival time, dose: 45.0 mg/kg/injection, schedule: Q01DX005 (ip), vehicle: water 95 % of control | endpoint: mean survival time, dose: 90.0 mg/kg/injection, schedule: Q01DX005 (ip), vehicle: water 103 % of control

COC(=O)C1C=CCC=C1OC (centres undefined)
inactive: [7] 113 % of control | [8] 104 % of control | [9] 109 % of control

CC(=O)OCCCOC(C)=O
inactive: [10] 93 % of control | [11] 112 % of control | [12] 101 % of control

Cc1ccc(S(=O)(=O)OCC(C)C)cc1
inactive: [7] 101 % of control | [8] 101 % of control | [9] 98 % of control

C=C=CCCCCOC1CCCCO1 (centres undefined)
inactive: [10] 89 % of control | [11] 89 % of control | [12] 89 % of control

CC(=O)N(C)N=Nc1ccc(C(C)C)cc1
inactive: endpoint: mean survival time, dose: 9.37 mg/kg/injection, schedule: Q04DX003 (ip), vehicle: Klucel (hydroxypropylcellulose) (HPC) 97 % of control | endpoint: median survival time, dose: 2.3 mg/kg/injection, schedule: Q01DX009 (ip), vehicle: Klucel (hydroxypropylcellulose) (HPC) 116 % of control | endpoint: median survival time, dose: 4.6 mg/kg/injection, schedule: Q01DX009 (ip), vehicle: Klucel (hydroxypropylcellulose) (HPC) 110 % of control | endpoint: median survival time, dose: 9.37 mg/kg/injection, schedule: Q01DX009 (ip), vehicle: Klucel (hydroxypropylcellulose) (HPC) 116 % of control

COc1ccc(CNCCO)cc1OC
inactive: endpoint: median survival time, dose: 25.0 mg/kg/injection, schedule: Q04DX003 (ip), vehicle: saline 90 % of control | endpoint: median survival time, dose: 50.0 mg/kg/injection, schedule: Q04DX003 (ip), vehicle: saline 90 % of control | endpoint: median survival time, dose: 100.0 mg/kg/injection, schedule: Q04DX003 (ip), vehicle: saline 90 % of control | endpoint: median survival time, dose: 200.0 mg/kg/injection, schedule: Q04DX003 (ip), vehicle: saline 100 % of control

CC(C)CCNCCO
inactive: endpoint: mean survival time, dose: 75.0 mg/kg/injection, schedule: Q01DX001 (ip), vehicle: saline 102 % of control | endpoint: mean survival time, dose: 150.0 mg/kg/injection, schedule: Q01DX001 (ip), vehicle: saline 102 % of control

Clc1ccccc1/C=C1/c2ccccc2-c2nc3ccccc3cc21
inactive: [7] 97 % of control | [1] 89 % of control | [8] 105 % of control | [2] 100 % of control | [9] 102 % of control | [3] 95 % of control

CC1(C)C(=O)C(C)(C)C1=NNc1ccc([N+](=O)[O-])cc1[N+](=O)[O-]
inactive: endpoint: median survival time, dose: 50.0 mg/kg/injection, schedule: Q04DX002 (ip), vehicle: saline with Tween-80 90 % of control | endpoint: median survival time, dose: 100.0 mg/kg/injection, schedule: Q04DX002 (ip), vehicle: saline with Tween-80 100 % of control | endpoint: median survival time, dose: 200.0 mg/kg/injection, schedule: Q04DX002 (ip), vehicle: saline with Tween-80 90 % of control | endpoint: median survival time, dose: 400.0 mg/kg/injection, schedule: Q04DX002 (ip), vehicle: saline with Tween-80 100 % of control

CCCCCCC[CH2][Sn]1([CH2]CCCCCCC)[O]C2C(CO)OC(n3ccc4c(N)ncnc43)C2[O]1 (centres undefined)
inactive: endpoint: mean survival time, dose: 0.78 mg/kg/injection, schedule: Q01DX005 (ip), vehicle: other 110 % of control | endpoint: mean survival time, dose: 1.56 mg/kg/injection, schedule: Q01DX005 (ip), vehicle: other 107 % of control | endpoint: mean survival time, dose: 3.13 mg/kg/injection, schedule: Q01DX005 (ip), vehicle: other 115 % of control | endpoint: mean survival time, dose: 6.25 mg/kg/injection, schedule: Q01DX005 (ip), vehicle: other 102 % of control

O=C(CCC(O)(C(=O)c1ccccc1)c1ccccc1)c1ccccc1 (centres undefined)
inactive: [1] 91 % of control | [2] 94 % of control | [3] 88 % of control

C[Si](C)(C)/C(=N/Nc1ccc([N+](=O)[O-])cc1[N+](=O)[O-])c1ccccc1
inactive: endpoint: mean survival time, dose: 100.0 mg/kg/injection, schedule: Q01DX001 (ip), vehicle: Klucel (hydroxypropylcellulose) (HPC) 97 % of control | endpoint: mean survival time, dose: 200.0 mg/kg/injection, schedule: Q01DX001 (ip), vehicle: Klucel (hydroxypropylcellulose) (HPC) 95 % of control | endpoint: mean survival time, dose: 400.0 mg/kg/injection, schedule: Q01DX001 (ip), vehicle: Klucel (hydroxypropylcellulose) (HPC) 92 % of control

O=S(=O)(Cl)c1cccc2cc3ccccc3cc12
inactive: [4] 109 % of control | [5] 97 % of control | [6] 103 % of control

CC(=O)OC1COC(n2nnc3c(-c4ccccc4)c(C)nn32)C(OC(C)=O)C1OC(C)=O (centres undefined)
inactive: endpoint: median survival time, dose: 12.5 mg/kg/injection, schedule: Q01DX005 (ip), vehicle: Klucel (hydroxypropylcellulose) (HPC) 112 % of control | endpoint: median survival time, dose: 25.0 mg/kg/injection, schedule: Q01DX005 (ip), vehicle: Klucel (hydroxypropylcellulose) (HPC) 104 % of control | endpoint: median survival time, dose: 50.0 mg/kg/injection, schedule: Q01DX005 (ip), vehicle: Klucel (hydroxypropylcellulose) (HPC) 97 % of control | endpoint: median survival time, dose: 100.0 mg/kg/injection, schedule: Q01DX005 (ip), vehicle: Klucel (hydroxypropylcellulose) (HPC) 100 % of control | endpoint: median survival time, dose: 200.0 mg/kg/injection, schedule: Q01DX005 (ip), vehicle: Klucel (hydroxypropylcellulose) (HPC) 95 % of control

O=C1CCC2(C=C(Br)C(=O)C(Br)=C2)O1
inactive: endpoint: mean survival time, dose: 5.0 mg/kg/injection, schedule: Q01DX009 (ip), vehicle: saline with Tween-80 98 % of control | endpoint: mean survival time, dose: 5.0 mg/kg/injection, schedule: Q04DX003 (ip), vehicle: saline with Tween-80 103 % of control | endpoint: mean survival time, dose: 10.0 mg/kg/injection, schedule: Q04DX003 (ip), vehicle: saline with Tween-80 105 % of control | endpoint: mean survival time, dose: 20.0 mg/kg/injection, schedule: Q04DX003 (ip), vehicle: saline with Tween-80 101 % of control

CC(C)(C)c1ccc(O)cc1
inactive: [1] 94 % of control | [2] 95 % of control | [3] 88 % of control
